Positions of bridges follow the written chain, without caps; N, C: chain ends. Residues, ends and D or L forms follow the SMILES beside them.

Here are results for 1 molecule from article PMC7582727, “Functional Impact of BeKm-1, a High-Affinity hERG Blocker, on Cardiomyocytes Derived from Human-Induced Pluripotent Stem Cells” (International Journal of Molecular Sciences, 2020).

Data set [1] has as its target human hERG channel (Kv11.1) (Homo sapiens, UniProt Q12809). The experiment in a line: in vitro. On the procedure: (§1) Voltage pulses and whole-cell recordings were achieved using the PatchControl384 v1.5.3 software (Nanion Technologies, Munich, Germany) and the Biomek v1.0 interface (Beckman Coulter, Villepinte, France). […] After cell catching, sealing, whole-cell formation, liquid application, recording, and data acquisition were all performed sequentially and automatically. […] A single concentration of peptide was tested on each cell for building the full-inhibition curves.

Data set [2] concerns the target human hERG channel (Homo sapiens, UniProt Q12809). Description: in vitro. The settings on record: human. On the procedure: as §1
The subject of data set [3] is hiPS-CMs monolayers. Description: Contraction (impedance) of hiPS-CM monolayers (CardioExcyte 96). It is filed as cell-based, human. On the procedure:
The results described above on the excitability alterations of hiPS-CMs indicate that BeKm-1 should also impair excitation–contraction coupling (ECC) in these cells. In spontaneously beating cardiomyocytes, the toxin should impact the contractility in a coherent manner with spontaneous APs and CaT. We investigated the contractions using the CardioExcyte 96 system. […] Coherent with the proarrhythmic properties of 2 nM of BeKm-1, both the mean SD1, the standard deviation of instantaneous contraction-to-contraction interval variability, and SD2, the continuous long-term interval variability, increased by 2- and 1.7-fold, respectively (Figure S5I).
hiPS-CMs: All experiments were performed on the human-induced pluripotent stem cell (hiPSC) clone C2a that has been previously characterized, including cardiac differentiation and electrophysiology data. Cells were expanded on stem cell-qualified matrigel-coated plates (0.05 mg/mL; BD Bioscience, Le Pont de Claix, France) and cultured in StemMACS iPS-BREW XF medium (Miltenyi Biotec, Paris, France). Cells were passaged every […] using Gentle Cell Dissociation Buffer (StemCell Technologies, Grenoble, France). Prior to differentiation, cells were cultured as a monolayer in StemMACS iPS-brew supplemented with 1 × Y-27632 Rho-associated, coiled-coil containing protein kinase (ROCK) inhibitor (StemCell Technologies, Grenoble, France). When hiPSCs reached proper confluence, they were differentiated into cardiomyocytes using previously described « Matrix sandwich » protocol. At day 20 ± 1 of differentiation, beating cardiomyocytes were manually dissected and isolated from non-beating cells. Briefly, cardiomyocytes were washed with phosphate-buffered saline (PBS) and treated with TrypLE Express (10x) (Thermo Fisher Scientific, Illkirch-Graffenstaden, France) for 5 min at 37 °C. The enzyme was inactivated by adding RPMI1640 medium containing 20% (vol/vol) KnockOut Serum Replacement (KSR) (Thermo Fisher Scientific, Illkirch-Graffenstaden, France). The supernatant was removed, and cells were suspended in RPMI1640 medium containing 20% (vol/vol) KSR and ROCK inhibitor. Then, the cells were plated on specific supports suitable for functional assessments.
The beating properties and the electrical field potentials of hiPS-CMs were evaluated with a CardioExcyte96 system. After dissociation, hiPS-CMs were seeded on NSP-96 Sensor Plates (Nanion Technologies, Munich, Germany) at a density of 40,000 viable cells per well. Sensor plates were previously coated with 10 µg/mL fibronectin for 1 h at 37 °C. The cells were maintained at 37 °C, and the medium was replaced every 2 days for 1 week. On the day of beating assessment, the whole medium was replaced 4 h prior to experiments, and cells were incubated at 37 °C onto the CardioExcyte96 system. Meanwhile, cells were monitored to ensure the full stabilization of beating parameters until BeKm-1 was tested at various concentrations ([…]). Tfall and Trise were determined as the time between 10% and 90% of contraction or relaxation, respectively. Pulse width (PWx) was determined as the time corresponding to the width of the signal at 90% of relaxation. Electric field potentials (EFPs) were recorded using CardioExcyte96 system. For both contraction and EFPs, 10 sequences of 30 s of acquisition were analyzed before and after BeKm-1 addition. The CardioExcyte system is best to analyze the kinetic parameters of the contractile properties of hiPS-CMs but has intrinsic limitations to assess properly variations in contractile force.

Setting [4] is: 2 nM vs vehicle, n = 8 monolayers.

Chain of human hERG channel (Kv11.1) (Q12809 whole entry): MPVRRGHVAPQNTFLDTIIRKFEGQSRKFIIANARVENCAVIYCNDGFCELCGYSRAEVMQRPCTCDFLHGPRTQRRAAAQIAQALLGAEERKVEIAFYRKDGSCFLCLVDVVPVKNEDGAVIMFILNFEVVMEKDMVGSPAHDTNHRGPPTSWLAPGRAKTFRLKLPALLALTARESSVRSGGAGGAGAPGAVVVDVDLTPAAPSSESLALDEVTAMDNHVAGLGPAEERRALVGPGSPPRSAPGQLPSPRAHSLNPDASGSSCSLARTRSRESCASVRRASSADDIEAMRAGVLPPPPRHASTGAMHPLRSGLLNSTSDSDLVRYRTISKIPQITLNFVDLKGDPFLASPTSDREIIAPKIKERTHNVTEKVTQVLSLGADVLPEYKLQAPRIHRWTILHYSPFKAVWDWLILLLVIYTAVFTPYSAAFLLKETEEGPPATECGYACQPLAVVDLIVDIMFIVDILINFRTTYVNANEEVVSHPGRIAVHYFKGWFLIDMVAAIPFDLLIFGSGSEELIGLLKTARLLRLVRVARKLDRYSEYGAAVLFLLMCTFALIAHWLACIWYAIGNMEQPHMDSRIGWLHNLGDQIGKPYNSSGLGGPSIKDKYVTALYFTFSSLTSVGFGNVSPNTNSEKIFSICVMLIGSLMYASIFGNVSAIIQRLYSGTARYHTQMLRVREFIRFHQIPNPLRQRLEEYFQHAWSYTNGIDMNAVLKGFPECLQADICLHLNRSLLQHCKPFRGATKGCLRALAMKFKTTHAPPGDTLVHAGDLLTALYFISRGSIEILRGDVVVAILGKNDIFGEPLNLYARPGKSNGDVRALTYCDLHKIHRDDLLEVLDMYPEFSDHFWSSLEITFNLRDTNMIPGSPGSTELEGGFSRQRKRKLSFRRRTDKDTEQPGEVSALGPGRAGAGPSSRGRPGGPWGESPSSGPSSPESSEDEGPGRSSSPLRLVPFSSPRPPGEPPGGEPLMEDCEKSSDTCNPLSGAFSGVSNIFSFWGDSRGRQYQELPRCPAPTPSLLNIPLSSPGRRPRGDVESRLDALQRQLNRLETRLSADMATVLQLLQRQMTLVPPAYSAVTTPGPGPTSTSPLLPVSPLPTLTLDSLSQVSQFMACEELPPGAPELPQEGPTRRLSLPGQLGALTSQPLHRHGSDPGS
Chain of human hERG channel (Q12809 whole entry): as above

By IC50 is commonly meant the midpoint of a concentration-inhibition curve. Low readings indicate higher potency, high ones lower potency. Take `CC[C@H](C)[C@H](NC(=O)[C@H](CC(=O)O)NC(=O)[C@@H](NC(=O)[C@@H]1CCCN1C(=O)[C@@H](N)CCCNC(=N)N)[C@@H](C)O)C(=O)N[C@@H](CCCCN)C(=O)N[C@H]1CSSC[C@@H]2NC(=O)[C@H](CCCNC(=N)N)NC(=O)CNC(=O)[C@H](CC(N)=O)NC(=O)[C@H]([C@@H](C)O)NC(=O)[C@H](CCCCN)NC(=O)CNC(=O)[C@H](Cc3ccccc3)NC(=O)[C@H](CCCNC(=N)N)NC(=O)[C@H](CO)NC(=O)[C@H](CCCCN)NC(=O)[C@@H]3CSSC[C@@H](C(=O)N[C@@H](Cc4ccccc4)C(=O)O)NC(=O)[C@H](CC(=O)O)NC(=O)[C@H](CSSC[C@H](NC(=O)[C@H](CCC(N)=O)NC(=O)[C@H](Cc4ccc(O)cc4)NC(=O)[C@H](CO)NC(=O)[C@H](CCC(=O)O)NC(=O)[C@H](CO)NC1=O)C(=O)N[C@@H](Cc1ccccc1)C(=O)N1CCC[C@H]1C(=O)N[C@@H](C(C)C)C(=O)N3)NC(=O)[C@H](Cc1ccccc1)NC(=O)CNC(=O)[C@H](CC(N)=O)NC(=O)[C@H](C(C)C)NC2=O` [BeKm-1] (H-RPTDIKCSESYQCFPVCKSRFGKTNGRCVNGFCDCF-OH; disulfide 7-28, 13-33, 17-35 (inferred); N-terminus and C-terminus assumed): in data set [1] (HEK293-hERG, Hill equation fit of dose-response curve), the “Hill number, hERG current inhibition” value stood at 1.9. Moreover, the “maximal block of hERG currents (plateau)” value in data set [1] (at maximally effective doses of the peptide (100 nM)) was 90%. Also, inhibition in data set [2] was half-maximal at 1.9 ± 0.3 nM (IC50 at 13 min). Further, in data set [3] (2 nM), the contraction amplitude entry is “not significantly different from the control”; the “pulse width PW95” value was “significant alteration”; the “pulse widths PW30, PW70 and PW90” value was “none of the pulse widths (PW) PW30, PW70, and PW90 parameters were significantly altered”. In data set [3] (2 nM vs vehicle), the interbeat interval increase came out at 16.7%, the “slowing of relaxation phase” value is recorded as 19.8% and the “slowing of rising phase of contraction” value was 1.29 -fold. In data set [3] (setting [4]), the “SD1 increase (instantaneous contraction-to-contraction interval variability)” value is reported as 2 -fold and the “SD2 increase (continuous long-term interval variability)” value is 1.7 -fold. Besides, in data set [3] (2 nM, 37 °C, vehicle 2.03 ± 0.1 s, n = 8, mean ± SEM), the interbeat interval turned out to be 2.37 ± 0.2 s. Besides, the “duration of rising phase of contraction (Trise)” value in data set [3] (2 nM, 37 °C, vehicle 203.5 ± 11.3 ms, n = 8, mean ± SEM) was determined as 262.6 ± 16.9 ms. Moreover, the “duration of relaxation phase (Tfall)” value in data set [3] (2 nM, 37 °C, vehicle 719.2 ± 45.8 ms, n = 8, mean ± SEM) amounted to 862.1 ± 82.0 ms. Moreover, the “interbeat interval and its variability” value in data set [3] (2 nM, Poincaré plot) is recorded as “significantly increased”.
